# “Also recorded” adds a separate entry of the source.
# What was measured:
# calnexin = test: Calnexin protein expression in HuH7 cells (immunoblot); format: cell-based, human
# Protocol: Cells were washed in phosphate-buffered saline (PBS), lysed in 4× SDS-PAGE lysis buffer and separated on 7-10% polyacrylamide gels in denaturing conditions. Gels were transferred to nitrocellulose membranes using the BioRad mini trans-blot system, blocked in 5% skim milk in tris-buffered saline (TBS) for 1 h and incubated in primary antibody overnight for 16 h at 4° C. Membranes were then exposed to horse radish peroxidase conjugated secondary antibodies and visualized using EZ-ECL chemiluminescent reagent (Froggabio). Band intensities were quantified using ImageJ software ([…]) against membranes reprobed for housekeeping proteins.
# Among the many intracellular effects of CF on the cell, its ability to increase intracellular Ca^2+ levels is well-studied (Echeverri, D., et al., 2010). […] ER Ca^2+ levels were then examined in cells transfected with D1ER; a genetically-encoded ER-resident fluorescence resonance energy transfer (FRET)-based […] chameleon Ca^2+ sensor, which increases in fluorescence intensity upon Ca^2+ binding (Palmer, A. E., et al., 2004). The low-affinity Ca^2+ indicator, Mag-Fluo-4, was also utilized for the direct assessment of ER Ca^2+ and increases in fluorescence intensity upon Ca^2+ binding (Diercks, B. P., et al., 2017; Lebeau, P., et al., 2021). […] ER Ca^2+ content was also assessed indirectly with the high affinity Ca^2+ dye, fura-2-AM (FIG. 6 B). […]
# total secreted protein = test: Coomassie stain of medium for total secreted protein; format: cell-based; conditions: Coomassie stain of medium of CF-treated cells
# Protocol: Cultured immortalized hepatocytes known to express and secrete PCSK9 (Lebeau, P., et al., 2017), including HuH7 and HepG2 cells, as well as primary mouse- and human-hepatocytes (PMH and PHH, respectively), were treated with CF for 24 h and assessed for PCSK9 expression via immunoblots and real-time PCR (FIG. 1 A to D). […] Given that sterol deprivation represents another well-established promoter of SREBP2 activation (Lebeau, P., et al., 2017), cells were also treated with CF in the presence and absence of U18666A (U18) that depletes intracellular sterols. […] Next, HepG2 cells were treated with an increasing dose of CF.
# HepG2 hepatocytes = test: LDH cytotoxicity assay in HepG2 hepatocytes; format: cell-based, human; conditions: cultured HepG2 hepatocytes
# Protocol: Secreted PCSK9 levels were assessed using ELISAs and mRNA transcript via real-time PCR. […] Secreted PCSK9, as well as PCSK9 mRNA and SREBP2 mRNA were assessed in these cells. (E) The cytotoxicity of these agents was examined using an LDH assay. […] (G) The uptake of DiI-LDL was also quantified in these cells using a spectrophotometer. Values are presented as the mean and error bars as SD. *, p<0.05 vs. vehicle; NS, non-significant.
# PCSK9 [1] = test: Secreted PCSK9 levels in HepG2 cells (ELISA); format: cell-based, human
# Protocol: HuH7 and HepG2 cells were routinely grown in complete Dulbecco's Modified Eagle's Medium (Gibco, Thermofisher Scientific) supplemented with 10% fetal bovine serum (Sigma-Aldrich) and 100 U/ml of penicillin and streptomycin (Sigma-Aldrich). […] All cell treatments were carried out for 24 h unless otherwise stated. Cells were transfected with a cocktail consisting of plasmid DNA (1 μg), X-tremeGENE HP (3 μl; Thermofisher Scientific) and opti-MEM (100 μl; Thermofischer Scientific) per 1 ml complete medium containing plated cells. Human PCSK9 was overexpressed using the bicistronic pIRES-EGFP plasmid; calnexin using the mPA-GFP-N1 plasmid. To block the expression of GRP78 and CD36, siGENOME smartpool siRNA was purchased from GE Dharmacon (M-008198-02 and L-010206-00-0005 respectively) and transfected using lipofectamine RNAiMAX as per manufacturer's protocol.
# (§1) Secreted PCSK9 levels were assessed directly in cell culture medium of cells grown in FBS-free medium for 24 h or in the serum isolated from either mice or human subjects. Mouse PCSK9 was measured using the Quantikinine® ELISA kit (#MCP900, R&D Systems) and human PCSK9 using the PCSK9 Quantikinine® ELISA kit (#DCP900, R&D Systems). Serum ApoB levels were also quantified using ELISAs (#DAPB00, R&D Systems). Serum samples were diluted as per manufacturer's instructions.
# CF, however, is a well-characterized compound having several health benefits with few known adverse effects. Achieving an optimal level of PCSK9 inhibition absent of the neuro-excitatory effect of CF, however, may be a challenge for the long-term clinical application of these findings. […] See Table 6 for the structure activity relationships of several other known xanthine-based compounds explored at varying doses in HepG2 cells for 24 h.
# PCSK9 [2] = test: Plasma PCSK9 in healthy human subjects after oral CF; format: in vivo; conditions: fasted healthy subjects, 400 mg orally (~5 mg/kg)
# Protocol: as §1
# Healthy human subjects between the ages of 22 and 45 underwent fasting for 12 h prior to oral administration of 400 mg CF (˜5 mg/kg). Blood was collected prior to administration and at h 2 and 4 following administration.
# Given that CF is among the most commonly consumed pharmacologically active compounds in the world (8), its ability to affect PCSK9 levels in fasted healthy volunteers was assessed. Serum was collected prior to, as well as 2- and 4-h post CF treatment (400 mg orally; ˜5 mg/kg). Consistent with the observations in cultured hepatocytes and in mice, CF reduced plasma PCSK9 levels in healthy subjects by 25% (n=12) and 21% (n=8) at the 2- and 4-h time points, respectively (FIG. 11 A and B).
compound,measurement,setting,value
"C/C=C(/C)C(=O)O[C@H]1C(C)=C2[C@H]([C@@H]1OC(=O)CCCCCCC)[C@@](C)(OC(C)=O)C[C@H](OC(=O)CCC)[C@@]1(O)[C@H]2OC(=O)[C@@]1(C)O [TG, thapsigargin]",calnexin protein expression,calnexin,blocked
"Cn1c(=O)c2c(ncn2C)n(C)c1=O [caffeine, 1,3,7-Trimethylxanthine]",global protein secretion,total secreted protein,not affecting global protein secretion
same,calnexin protein expression,calnexin,induced
same,cytotoxicity (LDH assay),HepG2 hepatocytes,did not exhibit cytotoxic properties
same,PCSK9 secretion from cells transfected with CMV-driven PCSK9 vector,"PCSK9 [1]; HepG2, CF 1 mM, listed as CF",failed to block the secretion of PCSK9; also recorded: does not affect CMV-driven PCSK9 expression
same,PCSK9 secretion in Ca^2+-deficient medium,"PCSK9 [1]; HepG2, Ca^2+-deficient medium 48 h",failed to antagonize PCSK9 secretion
same,reduction of plasma PCSK9 levels at 2 h,PCSK9 [2]; 2 h,25%
same,reduction of plasma PCSK9 levels at 4 h,PCSK9 [2]; 4 h,21%

# Reference: US20260151398A1, “COMPOUNDS FOR REDUCING CHOLESTEROL AND TREATING LIVER AND KIDNEY DISEASE” (McMaster University, priority 2021, published 2026)
